Tested on: S. carnosus TM300
Test: RNAseq differential gene expression
Type: cell-based, Staphylococcus carnosus
Description: For the RNAseq experiments, epilancin was added at sub-lethal concentration (0.5x MIC) to S. carnosus TM300 once the cultures reached an OD600 of 0.6. RNA was extracted 40 min after the treatment, using a FastRNA Pro Blue kit (MP Biomedicals). Both treated and parallel untreated samples were collected at the same time. Sequencing was performed at the Carver Biotechnology Center (UIUC). For RNAseq analysis, gene counts were read in to R (v3.1.1; [Team, 2014]), and 14/2441 genes were removed because they had fewer than 32 total counts across the six samples. edgeR’s (v3.6.7) TMM normalization ([Robinson and Oshlack, 2010]) plus negative binomial generalized log-linear model ([McCarthy et al., 2012]) was used to test for differential expression between treated and untreated groups, while accounting for pairing of U and T replicates from three different cultures. p-values were adjusted using the false discovery rate method ([Benjamini and Hochberg, 1995]).

For Epilancin 15X, the fold_change (gene ileS, isoleucyl-tRNA synthetase) was 0.47, the fold_change (gene kbl, 2-amino-3-ketobutyrate coenzyme A ligase) was 0.46 and the fold_change (gene mnhA, monovalent cation/H+ antiporter subunit A) was 0.48. It also gave a fold_change (gene murC, UDP-N-acetylmuramate--L-alanine ligase) of 0.4, a fold_change (gene ndk, nucleoside diphosphate kinase) of 0.44 and a fold_change (gene nirC, NirC protein) of 0.43. The fold_change (gene nos, nitric oxide synthase oxygenase) was 0.43, the fold_change (gene opuAC, putative glycine betaine ABC transporter substrate-binding protein) was 0.43 and the fold_change (gene pmi, mannose-6-phosphate isomerase) was 0.42. For the same substance, the fold_change (gene potA, putative spermidine/putrescine import ATP-binding protein PotA) was 0.41, the fold_change (gene prmC (SCA_1620), hypothetical protein) was 0.48 and the fold_change (gene ptsG (glcA), glucose-specific phosphotransferase system enzyme II, factor IIA) was 0.42. For the same substance, the fold_change (gene purA, adenylosuccinate synthetase) was 0.45, the fold_change (gene purB, adenylosuccinate lyase) was 0.41 and the fold_change (gene rex (SCA_1553), redox-sensing transcriptional repressor Rex) was 0.42. For the same substance, the fold_change (gene rimM, 16S rRNA-processing protein RimM) was 0.44, the fold_change (gene rplE, 50S ribosomal protein L5) was 0.47 and the fold_change (gene rplF, 50S ribosomal protein L6) was 0.48. The fold_change (gene rplJ, 50S ribosomal protein L10) was 0.48, the fold_change (gene rplL, 50S ribosomal protein L7/L12) was 0.48 and the fold_change (gene rplR, 50S ribosomal protein L18) was 0.47. For the same substance, the fold_change (gene rplX, 50S ribosomal protein L24) was 0.48, the fold_change (gene rpmD, 50S ribosomal protein L30) was 0.48 and the fold_change (gene rpmG, 50S ribosomal protein L33) was 0.42. The fold_change (gene rpsE, 30S ribosomal protein S5) was 0.48, the fold_change (gene rpsF, 30S ribosomal protein S6) was 0.42 and the fold_change (gene rpsH, 30S ribosomal protein S8) was 0.48. The fold_change (gene rpsR, 30S ribosomal protein S18) was 0.47, the fold_change (gene rpsT, 30S ribosomal protein S20) was 0.44 and the fold_change (gene sdhB, succinate dehydrogenase iron-sulfur subunit) was 0.41. It also gave a fold_change (gene trmD, tRNA (guanine-N(1)-)-methyltransferase) of 0.44, a fold_change (gene trpD, anthranilate phosphoribosyltransferase) of 0.4 and a fold_change (gene trpS, tryptophanyl-tRNA synthetase) of 0.47. The fold_change (gene tyrA, prephenate dehydrogenase) was 0.41, the fold_change dps (general stress protein 20U) was 6.95 and the “fold_change Sca_1447” value (glycosyltransferase) was 3.57. The “fold_change Sca_0051” value (glyoxalase/bleomycin resistance protein/dioxygenase superfamily protein) was 6.15, the “fold_change Sca_0808” value (glyoxalase/bleomycin resistance protein/dioxygenase superfamily protein (fragment 2)) was 2.14 and the “fold_change gloA” value (glyoxylase family protein) was 3.75. The “fold_change grpE” value (heat shock protein GrpE) was 2.94, the “fold_change vraS” value (histidine kinase sensor) was 7.95 and the “fold_change Sca_0031” value (hypothetical protein) was 3.09. The “fold_change Sca_0046” value (hypothetical protein) was 2.17, the “fold_change Sca_0052” value (hypothetical protein) was 5.71 and the “fold_change Sca_0054” value (hypothetical protein) was 2.52. For the same substance, the “fold_change Sca_0067” value (hypothetical protein) was 4.42, the “fold_change Sca_0071” value (hypothetical protein) was 7.07 and the “fold_change Sca_0072” value (hypothetical protein) was 7.15. The “fold_change Sca_0096” value (hypothetical protein) was 3.48, the “fold_change Sca_0097” value (hypothetical protein) was 2.35 and the “fold_change Sca_0098” value (hypothetical protein) was 2.28. For the same substance, the “fold_change Sca_0100” value (hypothetical protein) was 2.47, the “fold_change Sca_0114” value (hypothetical protein) was 3.35 and the “fold_change Sca_0117” value (hypothetical protein) was 2.03. For the same substance, the “fold_change Sca_0128” value (hypothetical protein) was 0.49, the “fold_change Sca_0133” value (hypothetical protein) was 2.43 and the “fold_change Sca_0179” value (hypothetical protein) was 5.25. For the same substance, the “fold_change Sca_0238” value (hypothetical protein) was 5.63, the “fold_change Sca_0248” value (hypothetical protein) was 3.2 and the “fold_change Sca_0264” value (hypothetical protein) was 2.54. The “fold_change Sca_0265” value (hypothetical protein) was 3.04, the “fold_change Sca_0279” value (hypothetical protein) was 2.02 and the “fold_change Sca_0299” value (hypothetical protein) was 4.24. The “fold_change Sca_0324” value (hypothetical protein) was 2.17, the “fold_change Sca_0328” value (hypothetical protein) was 6.61 and the “fold_change Sca_0329” value (hypothetical protein) was 5.2. For the same substance, the “fold_change Sca_0356” value (hypothetical protein) was 4.74, the “fold_change Sca_0422” value (hypothetical protein) was 2.12 and the “fold_change Sca_0454” value (hypothetical protein) was 3.4. For the same substance, the “fold_change Sca_0459” value (hypothetical protein) was 3.3, the “fold_change Sca_0468” value (hypothetical protein) was 2.78 and the “fold_change Sca_0471” value (hypothetical protein) was 4. The “fold_change Sca_0472” value (hypothetical protein) was 3.68, the “fold_change Sca_0473” value (hypothetical protein) was 4.68 and the “fold_change Sca_0474” value (hypothetical protein) was 4.61. For the same substance, the “fold_change Sca_0477” value (hypothetical protein) was 4.52, the “fold_change Sca_0478” value (hypothetical protein) was 3.97 and the “fold_change Sca_0481” value (hypothetical protein) was 4.58. For the same substance, the “fold_change Sca_0482” value (hypothetical protein) was 3.77, the “fold_change Sca_0483” value (hypothetical protein) was 3.93 and the “fold_change Sca_0484” value (hypothetical protein) was 3.96. For the same substance, the “fold_change Sca_0485” value (hypothetical protein) was 3.21, the “fold_change Sca_0487” value (hypothetical protein) was 4.14 and the “fold_change Sca_0488” value (hypothetical protein) was 2.02. The “fold_change Sca_0489” value (hypothetical protein) was 2.6, the “fold_change Sca_0490” value (hypothetical protein) was 2.76 and the “fold_change Sca_0491” value (hypothetical protein) was 2.13. For the same substance, the “fold_change Sca_0525” value (hypothetical protein) was 2.45, the “fold_change Sca_0529” value (hypothetical protein) was 2.16 and the “fold_change Sca_0643” value (hypothetical protein) was 3.47. The “fold_change Sca_0647” value (hypothetical protein) was 2.16, the “fold_change Sca_0648” value (hypothetical protein) was 2.05 and the “fold_change Sca_0666” value (hypothetical protein) was 5.78. The “fold_change Sca_0700” value (hypothetical protein) was 2.96, the “fold_change Sca_0703” value (hypothetical protein) was 5.58 and the “fold_change Sca_0752” value (hypothetical protein) was 2.97. For the same substance, the “fold_change Sca_0778” value (hypothetical protein) was 3.33, the “fold_change Sca_0834” value (hypothetical protein) was 3.67 and the “fold_change Sca_0844” value (hypothetical protein) was 5.22. For the same substance, the “fold_change Sca_0862” value (hypothetical protein) was 2.79, the “fold_change Sca_0868” value (hypothetical protein) was 2.53 and the “fold_change Sca_0877” value (hypothetical protein) was 2.02. For the same substance, the “fold_change Sca_0934” value (hypothetical protein) was 3.62, the “fold_change Sca_0935” value (hypothetical protein) was 2.43 and the “fold_change Sca_0959” value (hypothetical protein) was 2.05. For the same substance, the “fold_change Sca_0965” value (hypothetical protein) was 2.37, the “fold_change Sca_0993” value (hypothetical protein) was 2.38 and the “fold_change Sca_1021” value (hypothetical protein) was 2.3. The “fold_change Sca_1081” value (hypothetical protein) was 2.09, the “fold_change Sca_1154” value (hypothetical protein) was 2.08 and the “fold_change Sca_1155” value (hypothetical protein) was 2.03. The “fold_change Sca_1209” value (hypothetical protein) was 3.24, the “fold_change Sca_1210” value (hypothetical protein) was 2.68 and the “fold_change Sca_1212” value (hypothetical protein) was 2.1. The “fold_change Sca_1236” value (hypothetical protein) was 5.11, the “fold_change Sca_1237” value (hypothetical protein) was 5.24 and the “fold_change Sca_1261” value (hypothetical protein) was 4.39. For the same substance, the “fold_change Sca_1262” value (hypothetical protein) was 4.13, the “fold_change Sca_1263” value (hypothetical protein) was 3.92 and the “fold_change Sca_1265” value (hypothetical protein) was 6.01. For the same substance, the “fold_change Sca_1328” value (hypothetical protein) was 2.71, the “fold_change Sca_1396” value (hypothetical protein) was 2.4 and the “fold_change Sca_1420” value (hypothetical protein) was 2.04. The “fold_change Sca_1461” value (hypothetical protein) was 6.62 and the “fold_change Sca_1500” value (hypothetical protein) was 2.03.

Reference: PMC10652874, “Investigation into the mechanism of action of the antimicrobial peptide epilancin 15X” (Frontiers in Microbiology, 2023)
